Results: PMC10632405, “A novel in silico scaffold-hopping method for drug repositioning in rare and intractable diseases” (Scientific Reports, 2023)

Biological target: PAK5 (Homo sapiens, UniProt Q9P286)
Settings: read-out: % inhibition at 50 nM

Chain of PAK5 (Q9P286 whole entry): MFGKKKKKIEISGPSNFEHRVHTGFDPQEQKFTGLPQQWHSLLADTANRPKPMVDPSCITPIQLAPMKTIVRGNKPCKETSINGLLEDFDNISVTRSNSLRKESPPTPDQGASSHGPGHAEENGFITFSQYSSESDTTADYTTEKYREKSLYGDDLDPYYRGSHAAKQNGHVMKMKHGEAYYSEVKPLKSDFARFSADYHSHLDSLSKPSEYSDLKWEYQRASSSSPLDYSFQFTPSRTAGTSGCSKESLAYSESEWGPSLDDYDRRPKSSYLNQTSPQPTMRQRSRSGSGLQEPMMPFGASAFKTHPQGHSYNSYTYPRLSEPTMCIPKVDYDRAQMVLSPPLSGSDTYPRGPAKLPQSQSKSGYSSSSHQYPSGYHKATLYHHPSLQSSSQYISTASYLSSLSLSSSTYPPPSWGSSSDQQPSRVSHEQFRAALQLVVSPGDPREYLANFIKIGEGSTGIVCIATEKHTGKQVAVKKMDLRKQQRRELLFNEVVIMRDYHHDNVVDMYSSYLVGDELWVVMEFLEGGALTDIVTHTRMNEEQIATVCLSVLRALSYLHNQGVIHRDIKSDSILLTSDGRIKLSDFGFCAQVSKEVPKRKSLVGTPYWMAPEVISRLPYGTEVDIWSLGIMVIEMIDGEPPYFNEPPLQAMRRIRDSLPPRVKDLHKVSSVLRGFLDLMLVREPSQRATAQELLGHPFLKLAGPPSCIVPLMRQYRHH

In the case of `NC(=O)c1cnc(N[C@@H]2CCCC[C@@H]2N)nc1Nc1cccc(-n2nccn2)c1` [BIIB-057], the inhibition at 0.05 µM was > 50%.
